Values of other authors, collected in US20220125711A1, “CANNABINOID-CONTAINING ORAL THIN FILM FORMULATIONS” (JDEM Properties, LLC, priority 2020, published 2022).

Test system: Drosophila
Conditions: dietary theanine, dose-dependent (Ki and Lim)

For `CCNC(=O)CC[C@H](N)C(=O)O` [L-theanine], the “daily amount of sleep” value is given as “markedly increased” and the “latency to sleep onset” value is given as “decreased”.
